From patent publication US4413005A, “Carbamate derivatives and insecticidal, miticidal or nematocidal compositions containing the same” (priority 1981, dated 1983)
Where two headings read alike, the source gives them in different places.

Key:
[1] = tested on: tobacco cutworm (Spodoptera litura); test: Mortality of third-instar larvae of tobacco cutworm on cabbage (Test Example 1); type: in vivo; conditions: 72 h
Description: Ten third-instar larvae of tobacco cutworm (Spodoptera litura) were placed on a cabbage (one-month-old seedling) planted in a pot, and a 50% emulsion of the compound to be tested was diluted to a specified concentration and applied to the leaves of the plant to fully wet them. The test compound of each specified concentration was tested on two pots.

[2] = tested on: house fly (Musca domestica); test: Local application to house fly, LD50 by Probit method (Test Example 4); type: in vivo; conditions: topical
Description: The compound to be tested was dissolved in a predetermined amount of acetone. The solution was diluted to various concentrations and locally applied to house fly (Musca domestica).

[3] = Acute oral toxicity in male mice, LD50 by Litchfield-Wilcoxon method (Test Example 5); conditions: mouse, in vivo, mortality on the seventh day
Description: Compounds of this invention were tested on male mice for acute toxicity by oral administration.

[4] = tested on: green rice leafhopper (Nephotettix cincticeps); test: Mortality of female adults of green rice leafhopper on paddy rice (Test Example 2); type: in vivo; conditions: 72 h
Description: An emulsion of specified concentration was prepared from a 50% wettable powder of the compound to be tested and applied to the leaves of paddy rice (one-month-old seedlings) planted in a pot to fully wet the leaves. After the emulsion had been dried, the pot was covered with a net cage, into which 10 female adults of green rice leafhopper (Nephotettix cincticeps) were released. The compound of each specified concentration was tested on two pots.

CCOC(=O)CN(SN(C)C(=O)Oc1cccc2c1OC(C)(C)C2)C(C)C [Example 15]
mortality at 500 ppm [1]: 75% | mortality at 1000 ppm [1]: 90% | mortality at 2000 ppm [1]: 100% | LD50 ([2]; 24 h): 33 mg/kg | LD50 at 168 h [3]: 110 mg/kg | mortality at 200 ppm [4]: 65% | mortality at 400 ppm [4]: 90% | mortality at 800 ppm [4]: 100%

CCOC(=O)CN(SN(C)C(=O)Oc1cccc2c1OC(C)(C)C2)C(=O)Oc1ccccc1 [Example 50]
mortality at 500 ppm [1]: 65% | mortality at 1000 ppm [1]: 80% | mortality at 2000 ppm [1]: 100% | LD50 ([2]; 24 h): 34.7 mg/kg | LD50 at 168 h [3]: 95 mg/kg | mortality at 200 ppm [4]: 60% | mortality at 400 ppm [4]: 75% | mortality at 800 ppm [4]: 95%

CCOC(=O)CN(SN(C)C(=O)Oc1cccc2c1OC(C)(C)C2)C(C)CC (stereo not shown) [Example 16]
mortality at 500 ppm [1]: 65% | mortality at 1000 ppm [1]: 85% | mortality at 2000 ppm [1]: 100% | LD50 ([2]; 24 h): 44.4 mg/kg | LD50 at 168 h [3]: 110 mg/kg | mortality at 200 ppm [4]: 60% | mortality at 400 ppm [4]: 80% | mortality at 800 ppm [4]: 100%

CCCCN(CCC(=O)OC)SN(C)C(=O)Oc1cccc2c1OC(C)(C)C2 [Example 28]
mortality at 500 ppm [1]: 75% | mortality at 1000 ppm [1]: 90% | mortality at 2000 ppm [1]: 100% | LD50 ([2]; 24 h): 17.7 mg/kg | LD50 at 168 h [3]: 89 mg/kg | mortality at 200 ppm [4]: 65% | mortality at 400 ppm [4]: 90% | mortality at 800 ppm [4]: 100%

CCCCC(CC)COC(=O)CCN(SN(C)C(=O)Oc1cccc2c1OC(C)(C)C2)C(C)C (stereo not shown) [Example 26]
mortality at 500 ppm [1]: 60% | mortality at 1000 ppm [1]: 80% | mortality at 2000 ppm [1]: 100% | LD50 ([2]; 24 h): 64.7 mg/kg | LD50 at 168 h [3]: 150 mg/kg | mortality at 200 ppm [4]: 55% | mortality at 400 ppm [4]: 75% | mortality at 800 ppm [4]: 100%

CCOC(=O)CN(C)SN(C)C(=O)Oc1cccc2c1OC(C)(C)C2 [Example 14, 2,3-Dihydro-2,2-dimethylbenzofuran-7-yl N-(N-methyl-N-ethoxycarbonylmethylaminosulfenyl)-N-methylcarbamate]
mortality at 500 ppm [1]: 75% | mortality at 1000 ppm [1]: 90% | mortality at 2000 ppm [1]: 100% | LD50 ([2]; 24 h): 9.9 mg/kg | LD50 at 168 h [3]: 120 mg/kg | mortality at 200 ppm [4]: 65% | mortality at 400 ppm [4]: 90% | mortality at 800 ppm [4]: 100%

CCOC(=O)CCCN(CC(=O)OCC)SN(C)C(=O)Oc1cccc2c1OC(C)(C)C2 [Example 10]
mortality at 500 ppm [1]: 75% | mortality at 1000 ppm [1]: 85% | mortality at 2000 ppm [1]: 100% | LD50 ([2]; 24 h): 46 mg/kg | LD50 at 168 h [3]: 115 mg/kg | mortality at 200 ppm [4]: 60% | mortality at 400 ppm [4]: 90% | mortality at 800 ppm [4]: 100%

CCOC(=O)CCN(CC(=O)OCC)SN(C)C(=O)Oc1cccc2c1OC(C)(C)C2 [Example 9]
mortality at 500 ppm [1]: 80% | mortality at 1000 ppm [1]: 90% | mortality at 2000 ppm [1]: 100% | LD50 ([2]; 24 h): 31.7 mg/kg | LD50 at 168 h [3]: 158 mg/kg | mortality at 200 ppm [4]: 60% | mortality at 400 ppm [4]: 90% | mortality at 800 ppm [4]: 100%

CCOC(=O)CN(SN(C)C(=O)Oc1cccc2c1OC(C)(C)C2)C(=O)CC [Example 43, 2,3-dihydro-2,2-dimethylbenzofuran-7-yl N-(N-propionyl-N-ethoxycarbonylmethylaminosulfenyl)-N-methyl-carbamate]
mortality at 500 ppm [1]: 70% | mortality at 1000 ppm [1]: 85% | mortality at 2000 ppm [1]: 100% | LD50 ([2]; 24 h): 14.4 mg/kg | LD50 at 168 h [3]: 43 mg/kg | mortality at 200 ppm [4]: 60% | mortality at 400 ppm [4]: 85% | mortality at 800 ppm [4]: 100%

CCOC(=O)CN(SN(C)C(=O)Oc1cccc2c1OC(C)(C)C2)C(=O)c1ccc(Cl)cc1 [Example 47]
mortality at 500 ppm [1]: 65% | mortality at 1000 ppm [1]: 80% | mortality at 2000 ppm [1]: 100% | LD50 ([2]; 24 h): 57.8 mg/kg | LD50 at 168 h [3]: 95 mg/kg | mortality at 200 ppm [4]: 60% | mortality at 400 ppm [4]: 75% | mortality at 800 ppm [4]: 95%

CCOC(=O)CN(SN(C)C(=O)Oc1cccc2c1OC(C)(C)C2)C(=O)CCl [Example 45]
mortality at 500 ppm [1]: 75% | mortality at 1000 ppm [1]: 90% | mortality at 2000 ppm [1]: 100% | LD50 ([2]; 24 h): 29.2 mg/kg | LD50 at 168 h [3]: 80 mg/kg | mortality at 200 ppm [4]: 65% | mortality at 400 ppm [4]: 90% | mortality at 800 ppm [4]: 100%

CC(C)N(CC#N)SN(C)C(=O)Oc1cccc2c1OC(C)(C)C2 [Example 34]
mortality at 500 ppm [1]: 75% | mortality at 1000 ppm [1]: 90% | mortality at 2000 ppm [1]: 100% | LD50 ([2]; 24 h): 16.7 mg/kg | LD50 at 168 h [3]: 95 mg/kg | mortality at 200 ppm [4]: 65% | mortality at 400 ppm [4]: 90% | mortality at 800 ppm [4]: 100%

CC(C)CN(CCC#N)SN(C)C(=O)Oc1cccc2c1OC(C)(C)C2 [Example 40]
mortality at 500 ppm [1]: 75% | mortality at 1000 ppm [1]: 85% | mortality at 2000 ppm [1]: 100% | LD50 ([2]; 24 h): 37.9 mg/kg | LD50 at 168 h [3]: 103 mg/kg | mortality at 200 ppm [4]: 70% | mortality at 400 ppm [4]: 85% | mortality at 800 ppm [4]: 100%

CCOC(=O)CN(SN(C)C(=O)Oc1cccc2c1OC(C)(C)C2)C(CC)C(=O)OCC (stereo not shown) [Example 11]
mortality at 500 ppm [1]: 70% | mortality at 1000 ppm [1]: 80% | mortality at 2000 ppm [1]: 100% | LD50 ([2]; 24 h): 93.9 mg/kg | LD50 at 168 h [3]: 93 mg/kg | mortality at 200 ppm [4]: 55% | mortality at 400 ppm [4]: 80% | mortality at 800 ppm [4]: 95%

CCOC(=O)CN(SN(C)C(=O)Oc1cccc2c1OC(C)(C)C2)C(=O)OC [Example 49]
mortality at 500 ppm [1]: 75% | mortality at 1000 ppm [1]: 90% | mortality at 2000 ppm [1]: 100% | LD50 ([2]; 24 h): 15.7 mg/kg | LD50 at 168 h [3]: 105 mg/kg | mortality at 200 ppm [4]: 70% | mortality at 400 ppm [4]: 90% | mortality at 800 ppm [4]: 100%

CCCCCCCCN(CC(=O)OCC)SN(C)C(=O)Oc1cccc2c1OC(C)(C)C2 [Example 17]
mortality at 500 ppm [1]: 60% | mortality at 1000 ppm [1]: 80% | mortality at 2000 ppm [1]: 100% | LD50 ([2]; 24 h): 42.3 mg/kg | LD50 at 168 h [3]: 69 mg/kg | mortality at 200 ppm [4]: 55% | mortality at 400 ppm [4]: 75% | mortality at 800 ppm [4]: 95%

CCOC(=O)CCN(SN(C)C(=O)Oc1cccc2c1OC(C)(C)C2)C(C)CC (stereo not shown) [Example 29]
mortality at 500 ppm [1]: 60% | mortality at 1000 ppm [1]: 80% | mortality at 2000 ppm [1]: 100% | LD50 ([2]; 24 h): 22.5 mg/kg | LD50 at 168 h [3]: 120 mg/kg | mortality at 200 ppm [4]: 45% | mortality at 400 ppm [4]: 75% | mortality at 800 ppm [4]: 100%

CCCCN(CCC(=O)OCC)SN(C)C(=O)Oc1cccc2c1OC(C)(C)C2 [Example 27, 2,3-Dihydro-2,2-dimethylbenzofuran-7-yl N-(N-n-butyl-N-ethoxycarbonylethylaminosulfenyl)-N-methylcarbamate]
mortality at 500 ppm [1]: 75% | mortality at 1000 ppm [1]: 90% | mortality at 2000 ppm [1]: 100% | LD50 ([2]; 24 h): 13.8 mg/kg | LD50 at 168 h [3]: 105 mg/kg | mortality at 200 ppm [4]: 65% | mortality at 400 ppm [4]: 90% | mortality at 800 ppm [4]: 100%

CNC(=O)Oc1ccccc1OC(C)C [2-Isopropoxyphenyl-N--methyl-carbamate, reference compound]
LD50 ([2]; house fly, locally applied in acetone, mortality 24 hours later, Probit method, read-out: LD50): 22.5 mg/kg | mortality at 200 ppm ([4]; 200 ppm active ingredient, from 50% wettable powder, three days later, read-out: Mortality): 0% | mortality at 400 ppm ([4]; 400 ppm active ingredient, from 50% wettable powder, three days later, read-out: Mortality): 0% | mortality at 800 ppm ([4]; 800 ppm active ingredient, from 50% wettable powder, three days later, read-out: Mortality): 0%

CNC(=O)Oc1cccc2ccccc12 [1-Naphthyl-N--methyl-carbamate, reference compound]
mortality at 500 ppm [1]: 60% | mortality at 1000 ppm [1]: 80% | mortality at 2000 ppm [1]: 100%
